# Values of other authors as cited in patent US20060003361A1, “SMVT transporters expressed in cancer cells” (Xenoport, Inc., priority 2004, published 2006).
# Biological target: T1, SMVT (Homo sapiens, UniProt Q9Y289)
# T1 sequence (Q9Y289 1-635): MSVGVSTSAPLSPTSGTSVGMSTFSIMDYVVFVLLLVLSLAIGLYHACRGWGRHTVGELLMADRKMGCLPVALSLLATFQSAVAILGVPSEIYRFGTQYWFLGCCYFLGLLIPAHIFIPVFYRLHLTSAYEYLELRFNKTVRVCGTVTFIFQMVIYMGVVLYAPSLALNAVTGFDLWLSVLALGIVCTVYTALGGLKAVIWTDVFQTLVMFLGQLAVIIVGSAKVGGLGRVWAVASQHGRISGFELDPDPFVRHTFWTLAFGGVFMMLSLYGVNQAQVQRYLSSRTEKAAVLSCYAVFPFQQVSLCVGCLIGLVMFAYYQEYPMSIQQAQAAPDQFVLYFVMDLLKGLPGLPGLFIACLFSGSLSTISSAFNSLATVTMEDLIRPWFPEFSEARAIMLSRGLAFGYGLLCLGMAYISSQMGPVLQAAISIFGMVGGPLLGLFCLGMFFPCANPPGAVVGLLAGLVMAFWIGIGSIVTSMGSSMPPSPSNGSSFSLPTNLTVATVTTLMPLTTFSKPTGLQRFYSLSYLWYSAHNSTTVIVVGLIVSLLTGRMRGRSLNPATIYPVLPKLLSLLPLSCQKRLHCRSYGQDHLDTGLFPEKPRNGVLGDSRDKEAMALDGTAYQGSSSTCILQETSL
row,Compound,Reported Affinity for SMVT [mM]
1,CC(C)(CO)[C@@H](O)C(=O)NCCC(=O)O [Pantothenic acid],0.03
2,O=C(O)CCCC[C@@H]1SC[C@@H]2NC(=O)N[C@@H]21 [Biotin],0.01
3,O=C(O)CCCc1ccccc1 [4-phenyl-butyric acid],0.04
